In patent publication US12016353B2, “Compositions and methods for aquaculturing” (The State of Israel, Ministry of Agriculture & Rural …, priority 2017, dated 2024):

What was measured:
Format in all cases: in vivo, Sparus aurata
[1] = system: PCNA; assay: PCNA mRNA expression in sea bream proximal intestine (intestinal epithelial cell proliferation); details: 0.8% sodium butyrate diet for 9 days, 1.5 h after feeding, P<0.05, FIG. 6
Method: Fish having an average weight of 14.49±0.2 g (mean±SEM) were stocked in 15 tanks at a density of 30 fish tank^−1 with 5 replicate tanks (assigned as A-E) dietary treatment^−1. […]
(§1) Total RNA extraction from samples of the proximal intestine was carried out using BioTri reagent (Biolab, Israel) according to the manufacturer's instructions. For determining total RNA quality and concentration, 2 μl from each sample diluted with 18 μl of DEPC treated water (1:10) were loaded onto a 384 well microplate (Greiner Bio-One, Austria). In each sample the 260/280 ratio, 260/230 ratio and RNA concentration were obtained by plate reader and Gen5 software (Synergy HT, BioTek, USA). For each RNA extraction procedure, the integrity of the extracted RNA was evaluated by electrophoresis on 1.2% agarose gel stained with GelRed (Biotium, USA). […]
Specific real-time PCR primers (Table 6) were designed for amplifying the sea bream PepT1 (accession no. GU733710.1), PCNA (accession no. CX734891.1), CCK, Cdx1b and β-actin (accession no. AY362763.1) transcripts. Quantification of target gene transcripts of different treatments was achieved by PCR reaction mix (10 μl) containing SYBR Green dye (Quanta, Perfecta; SYBR Green FastMix, Low ROX; 95074-012), template cDNA and 500 nM of target specific primers in a quantitative PCR system (Applied Biosystems, 7500 Fast Real Time PCR System). […]

[2] = system: proximal intestine epithelium; assay: Histological analysis of proximal intestine cross sections of sea bream (inner/outer perimeter ratio); details: 1.6% sodium butyrate, independent of dietary protein level, P<0.001, FIG. 9
Method: During the 13 week trial, fish were weighed approximately every two weeks. The data were used to calculate growth rates and to adjust the daily rations of feed. At the end of the trial, 6 fish from each tank were sampled for calculating gut index and extracting their proximal intestine total RNA. Two other fish were sampled for histology and body composition. All sampling procedures were performed as described.
Fish were euthanized with an overdose of MS2-22 (Sigma Aldrich, USA) followed by a swift decapitation and then dissected for the removal of their gastrointestinal tract. For total RNA, the 1st segment of the proximal intestine (approx. 1 cm) was cut, immediately frozen and stored at −80° C. until RNA extraction. […] For each fish, gut index was calculated using the following formula: Gut index=100×Body weight (g)/(intestine length (mm))^3.
Standard protocol for histological analysis was implemented (Grate et al., 2003). […] Intestinal cross sections were photographed under a stereo zoom microscope (Axio Zoom.V16, Zeiss, Germany) and the inner and outer perimeter (mm) of the sections were measured using ImageJ software (imagej(dot)nih(dot)gov/ij/). […] The calculated ratio (inner perimeter/outer perimeter) for each section was then averaged for each slide/sample and analyzed for differences between treatments.

[3] = system: PepT1; assay: Sustained effect of dietary butyrate on PepT1 mRNA expression in gilthead sea bream; details: for PepT1 transcription levels after butyrate feeding had ceased: 6 days after feeding butyrate ceased
Method: (§2) The experimental set up consisted of 200 L circular tanks in a flow through, filtered (10 μm) ambient seawater (40‰) system under a natural photoperiod of about 12 h/12 h (dark/light) where the water temperature ranged between 24.8-25.4° C. Experimental diets were offered to the fish twice a day (9:00; 14:00).
For determining whether (1) an effect of dietary butyrate on PepT1 transcriptional level is sustained after its supplementation has stopped and (2) to investigate an effect of dietary butyrate on Cdx1b expression. To this end another study was carried out. In this trial, fish having an average weight of 27.14±0.47 g (mean±SEM) were stocked at a density of 30 fish per tank with two replicate tanks per treatment. Fish were fed with the experimental diets (Table 4) including 1% taurine and 0, 0.8 and 1.6% of sodium butyrate for 8 days before its supplementation was stopped and all of the dietary groups started receiving the 0% sodium butyrate containing diet. Four fish from each tank (8 fish per dietary treatment) were sampled for their proximal intestine total RNA at days 9, 12 and 15 of the trial.
Fish were euthanized with an overdose of MS2-22 (Sigma Aldrich, USA) followed by a swift decapitation and then dissected for the removal of their gastrointestinal tract. For total RNA, the 1st segment of the proximal intestine (approx. 1 cm) was cut, immediately frozen and stored at −80° C. until RNA extraction. For histology, pieces of the proximal intestine (approx. 0.6 cm) were sampled, placed in 15 ml Falcon tubes containing 10% neutral buffered formalin (NBF) and stored at room temperature until processed. For immunohistochemistry (IHC-P) staining, pieces of proximal intestine (approx. 0.6 cm) were sampled, placed in 1.7 ml microcentrifuge tubes containing 4% paraformaldehyde (PFA) and stored at 4° C. for overnight fixation. After fixation, the intestinal samples were rinsed twice and washed three times (10 min each) with PBST 0.8% (PBS with 0.8% Triton x-100, Sigma Aldrich, USA). Following this, the samples were gradually dehydrated by one 5 min wash with 50% methanol in PBST followed by three more washings with 100% methanol and stored in 100% methanol at −20° C. until carrying out the staining procedure. After the removal of the gastrointestinal tract, the remaining carcasses of sampled fish were put into nylon bags and stored at −20° C. until proximate analysis. In order to calculate the gut index (GI), fish were weighed prior to the removal of their gastrointestinal tract. The intestines were separated from the stomach and pyloric caeca and then aligned, by forceps, against a ruler for measuring their length (mm). For each fish, gut index was calculated using the following formula: Gut index=100×Body weight (g)/(intestine length (mm))^3.
as §1

[4] = system: PepT1; assay: PepT1 pattern of expression during the day in gilthead sea bream (10 day trial); details: diet with 0.8% sodium butyrate and 1% taurine versus control, FIG. 4
Method: as §2
Fish having an average weight of 14.49±0.2 g (mean±SEM) were stocked in […] at a density of 30 fish tank^−1 with 5 replicate tanks (assigned as A-E) dietary treatment^−1. During the 10 day trial, fish were offered the experimental diets (Table 4) with 1% taurine and with 0 and 0.8% of sodium butyrate (Sigma Aldrich, USA). […]
Fish were euthanized with an overdose of MS2-22 (Sigma Aldrich, USA) followed by a swift decapitation and then dissected for the removal of their gastrointestinal tract. […] For each fish, gut index was calculated using the following formula: Gut index=100×Body weight (g)/(intestine length (mm))^3.
as §1, with “For determining total RNA quality and concentration, 2 μl from each sample diluted with 18 μl of DEPC treated water (1:10) were loaded onto a 384 well microplate (Greiner Bio-One, Austria).” left out

Q: Which “PCNA expression relative to control” value [1] does the source give for `CCCC(=O)[O-].[Na+]` [sodium butyrate] here?
A: more than 2 fold

Q: What about the “expansion of the inner to outer perimeter ratio of the proximal intestine” value [2] of the same compound?
A: approximately 30%

Q: And the “PepT1 transcription levels after butyrate feeding had ceased” value ([3]; 0.8% butyrate for 8 days, FIG. 5B)?
A: remained higher than the control

Q: What about the PepT1 transcription ([3]; 0.8% butyrate in diet for 8 days versus control, FIG. 5A) of the same compound?
A: significantly (P<0.001) increased

Q: And the “PepT1 transcription levels after butyrate feeding had ceased” value ([3]; 1.6% butyrate for 8 days, FIG. 5C)?
A: remained higher than the control

Q: And the PepT1 transcription ([3]; 1.6% butyrate in diet for 8 days versus control, FIG. 5A)?
A: significantly (P<0.001) increased

Q: What about the “PepT1 transcription, increase over control” value ([3]; 1.6% butyrate in diet for 8 days, FIG. 5A) of the same compound?
A: more than 2 fold

Q: What about the “PepT1 expression prior to the morning feeding” value [4] of the same compound?
A: significantly (P<0.01) higher PepT1 expression
